Data: patent publication US10836706B2, “Bacterial efflux pump inhibitors” (RUTGERS, THE STATE UNIVERSITY OF NEW JERSEY, priority 2016, dated 2020)

Assays:
[1] = test system: Escherichia coli ATCC 25922; assay: Test A: MIC-based assay for potentiation of antibiotics that are known efflux pump substrates; type: cell-based; settings: antibiotic MIC (e.g., clarithromycin and levofloxacin) in presence vs absence of the EPI compound; EPI at 1.6 to 12.5 μg/mL in CAMH broth, 24 hours at 37° C.
Text: (§1) The ability of a compound disclosed herein to inhibit a bacterial efflux pump can be determined using a method like Test A or Test B as described in Example 20 and as shown in Table 1. Test A. Minimum Inhibitory Concentration (MIC)-Based Assay for Potentiation of Antibiotics that are Known Efflux Pump Substrates: MIC-based assays were used to evaluate the impact of potential efflux pump inhibiting (EPI) compounds on the MICs of antibiotics (e.g., clarithromycin and levofloxacin) known to be substrates for Gram-negative bacterial efflux pumps. The assays were conducted in accordance with Clinical and Laboratory Standards Institute (CLSI) guidelines for broth microdilution, with the modification that assays were conducted in the presence and absence of the test EPI compounds. […] Log-phase Gram-negative bacteria were added to 96-well microtiter plates (at 5×10^5 colony forming units (CFU) per mL) containing two-fold serial dilutions of antibiotic in CAMH broth either in the absence or presence of the test EPI compounds. In all assays, each serial dilution of antibiotic was present in duplicate. The final volume in each well was 0.1 mL, and the microtiter plates were incubated aerobically for 24 hours at 37° C. […] The following Gram-negative bacterial strains were included in these assays: Escherichia coli ATCC 25922

[2] = test system: Pseudomonas aeruginosa ATCC 27853; assay: as above; type: cell-based; settings: antibiotic MIC (e.g., clarithromycin and levofloxacin) in presence vs absence of the EPI compound; EPI at 1.6 to 12.5 g/mL in CAMH broth, 24 hours at 37° C.
Text: as §1, with “Pseudomonas aeruginosa” for “Escherichia coli”, “27853.” for “25922”

Compound	Enhanced Activity in E. coli [1] [x]	Enhanced Activity in P. aeruginosa [2] [x]
Cl.Cl.Cl.NCCC[C@H](N)CNCc1cc(C(F)(F)F)cc(C(F)(F)F)c1 [Example 1, (S)—N^1-(3,5-bis(trifluoromethyl)benzyl)pentane-1,2,5-triaminium Chloride]	≥2	<2
CC(C)(C)c1cc(CNC[C@@H](N)CCCN)cc(C(C)(C)C)c1.Cl.Cl.Cl [Example 2, (S)—N^1-(3,5-di-tert-butylbenzyl)pentane-1,2,5-triaminium Chloride]	≥8	<2
Cl.Cl.Cl.NCCC[C@H](N)CNCCc1cc(C(F)(F)F)cc(C(F)(F)F)c1 [Example 3, (S)—N^1-(3,5-bis(trifluoromethyl)phenethyl)pentane-1,2,5-triaminium chloride]	≥4	≥2
CC(N)CC[C@H](N)CNCc1cc(C(F)(F)F)cc(C(F)(F)F)c1.Cl.Cl.Cl (stereo partly drawn) [Example 4, (2S)—N^1-(3,5-bis(trifluoromethyl)benzyl)hexane-1,2,5-triaminium Chloride]	<2	<2
CC(C)C(N)CC[C@H](N)CNCc1cc(-c2ccc(F)cc2)cc(-c2ccc(F)cc2)c1.Cl.Cl.Cl (stereo partly drawn) [Example 5, (2S)—N^1-((4,4″-difluoro-[1,1′:3′,1″-terphenyl]-5′-yl)methyl)-6-methylheptane-1,2,5-triaminium chloride]	32	≥2
Cl.Cl.Cl.NCCC[C@H](N)CNCc1cc(-c2ccc(F)cc2)cc(-c2ccc(F)cc2)c1 [Example 6, (S)—N1-((4,4″-difluoro-[1,1′:3′,1″-terphenyl]-5′-yl)methyl)pentane-1,2,5-triaminium chloride]	≥512	≥16
Cl.Cl.Cl.NCCN(CCN)Cc1cc(-c2ccc(F)cc2)cc(-c2ccc(F)cc2)c1 [Example 7, N1-(2-ammonioethyl)-N1-((4,4″-difluoro-[1,1′:3′,1″-terphenyl]-5′-yl)methyl)ethane-1,2-diaminium chloride]	≥512	≥16
Cl.Cl.Cl.NCCN(CCN)Cc1cc(C(F)(F)F)cc(C(F)(F)F)c1 [Example 8, 2-ammonio-1-((2-ammonioethyl)(3,5-bis(trifluoromethyl)benzyl)-14-azanyl)ethan-1-ylium chloride]	<2	<2
CC(C)(CNC[C@@H](N)CCCN)c1cc(-c2ccc(F)cc2)cc(-c2ccc(F)cc2)c1.Cl.Cl.Cl [Example 9, (S)—N^1-(2-(4,4″-difluoro-[1,1′:3′,1″-terphenyl]-5′-yl)-2-methylpropyl)pentane-1,2,5-triaminium chloride]	≥128	≥2
Cl.Cl.Cl.NCCC[C@H](N)CNCCc1cc(-c2ccc(F)cc2)cc(-c2ccc(F)cc2)c1 [Example 10, (S)—N1-(2-(4,4″-difluoro-[1,1′:3′,1″-terphenyl]-5′-yl)ethyl)pentane-1,2,5-triaminium chloride]	≥1024	≥64
Cl.Cl.NCCC[C@@H](N)COc1cc(-c2ccc(F)cc2)cc(-c2ccc(F)cc2)c1 [Example 11, (R)-5-((4,4″-difluoro-[1,1′:3′,1″-terphenyl]-5′-yl)oxy)pentane-1,4-diaminium chloride]	≥1024	≥16
Cl.Cl.NC[C@H](N)CCc1cc(-c2ccc(F)cc2)cc(-c2ccc(F)cc2)c1 [Example 12, (R)-4-(4,4″-difluoro-[1,1′:3′,1″-terphenyl]-5′-yl)butane-1,2-diaminium chloride]	≥32	<2
Cl.Cl.NCCC[C@H](N)COc1cc(-c2ccc(F)cc2)cc(-c2ccc(F)cc2)c1 [Example 13, (S)-5-((4,4″-difluoro-[1,1′:3′,1″-terphenyl]-5′-yl)oxy)pentane-1,4-diaminium chloride]	256	<2
CC(C)C(N)CC[C@H](N)COc1cc(-c2ccc(F)cc2)cc(-c2ccc(F)cc2)c1.Cl.Cl (stereo partly drawn) [Example 14, (2S)-1-((4,4″-difluoro-[1,1′:3′,1″-terphenyl]-5′-yl)oxy)-6-methylheptane-2,5-diaminium]	<2	<2
NCCC[C@H](N)CNCc1cc(-c2ccccc2)cc(-c2ccccc2)c1 [Example 15, (S)—N1-([1,1′:3′,1″-terphenyl]-5′-ylmethyl)pentane-1,2,5-triaminium Chloride]	≥128	≥16
Cl.Cl.NCCC[C@H](N)COc1cc(-c2ccc(C(F)(F)F)cc2)cc(-c2ccc(C(F)(F)F)cc2)c1 [Example 16, (S)-5-((4,4″-bis(trifluoromethyl)-[1,1′:3′,1″-terphenyl]-5′-yl)oxy)pentane-1,4-diaminium chloride]	<2	≥2
COc1ccc(-c2cc(OC[C@@H](N)CCCN)cc(-c3ccc(OC)cc3)c2)cc1.Cl.Cl [Example 17, (S)-5-((4,4″-dimethoxy-[1,1′:3′,1″-terphenyl]-5′-yl)oxy)pentane-1,4-diaminium chloride]	≥1024	≥2
Cl.Cl.NCCC[C@@H](N)COc1cc(-c2cccc(F)c2)cc(-c2cccc(F)c2)c1 [Example 18, (R)-5-((3,3″-difluoro-[1,1′:3′,1″-terphenyl]-5′-yl)oxy)pentane-1,4-diaminium chloride]	≥512	≥1
Cl.Cl.NCCC[C@@H](N)COc1cc(-c2ccc(F)c(F)c2)cc(-c2ccc(F)c(F)c2)c1 [Example 19, (R)-5-((3,3″,4,4″-tetrafluoro-[1,1′:3′,1″-terphenyl]-5′-yl)oxy)pentane-1,4-diaminium chloride]	≥2	≥1
